Source: the supplement of paper PMC10307832

Assays:
Experiment in all cases: relative viability (nuclei count vs DMSO), 5 days (fraction); higher = more cells survive
[1] = compound: Cc1ccc2nc(NCCN)c3ncc(C)n3c2c1 + Cc1cc(Nc2cc(N3CCN(C)CC3)nc(Sc3ccc(NC(=O)C4CC4)cc3)n2)n[nH]1 [Tozasertib] (partner 0.1 µM)
In short: (§1)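 Relative viability is defined as nuclei in treated wells over nuclei in vehicle wells. Duplicate plates were run and medians reported. Lung cancer cell lines in 1536-well plates were dosed by pin tool one day after seeding, with one drug or with a fixed anchor-drug dose plus five library-drug doses (not always all listed) in √10 steps, and nuclei were counted after 5 days.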

Salubrinal + Palbociclib = compound: O=C(/C=C/c1ccccc1)NC(NC(=S)Nc1cccc2cccnc12)C(Cl)(Cl)Cl [Salubrinal] + CC(=O)c1c(C)c2cnc(Nc3ccc(N4CCNCC4)cn3)nc2n(C2CCCC2)c1=O [Palbociclib] (partner 0.5 µM)
In short: as §1

Salubrinal + Navitoclax = compound: O=C(/C=C/c1ccccc1)NC(NC(=S)Nc1cccc2cccnc12)C(Cl)(Cl)Cl [Salubrinal] + CC1(C)CCC(c2ccc(Cl)cc2)=C(CN2CCN(c3ccc(C(=O)NS(=O)(=O)c4ccc(N[C@H](CCN5CCOCC5)CSc5ccccc5)c(S(=O)(=O)C(F)(F)F)c4)cc3)CC2)C1 [Navitoclax] (partner 0.5 µM)
In short: as §1

Salubrinal + Linsitinib = compound: O=C(/C=C/c1ccccc1)NC(NC(=S)Nc1cccc2cccnc12)C(Cl)(Cl)Cl [Salubrinal] + C[C@]1(O)C[C@@H](c2nc(-c3ccc4ccc(-c5ccccc5)nc4c3)c3c(N)nccn32)C1 [Linsitinib] (partner 1 µM)
In short: as §1

Cell Line: NCI-H1395
- relative viability ([1]; first compound 0.04 µM): 0.754
- relative viability ([1]; first compound 0.1265 µM): 0.763
- relative viability ([1]; first compound 0.4 µM): 0.661
- relative viability ([1]; first compound 1.265 µM): 0.655
- relative viability ([1]; first compound 4 µM): 0.795
- relative viability (Salubrinal + Palbociclib; first compound 0.08 µM): 0.638
- relative viability (Salubrinal + Palbociclib; first compound 0.253 µM): 0.648
- relative viability (Salubrinal + Palbociclib; first compound 0.8 µM): 0.591
- relative viability (Salubrinal + Palbociclib; first compound 2.53 µM): 0.62
- relative viability (Salubrinal + Palbociclib; first compound 8 µM): 0.587
- relative viability (Salubrinal + Navitoclax; first compound 0.08 µM): 1.08
- relative viability (Salubrinal + Navitoclax; first compound 0.253 µM): 1.26
- relative viability (Salubrinal + Navitoclax; first compound 0.8 µM): 1.12
- relative viability (Salubrinal + Navitoclax; first compound 2.53 µM): 1.06
- relative viability (Salubrinal + Navitoclax; first compound 8 µM): 1.29
- relative viability (Salubrinal + Linsitinib; first compound 0.08 µM): 1.31
- relative viability (Salubrinal + Linsitinib; first compound 0.253 µM): 1.12
- relative viability (Salubrinal + Linsitinib; first compound 0.8 µM): 1.09
- relative viability (Salubrinal + Linsitinib; first compound 2.53 µM): 0.998
- relative viability (Salubrinal + Linsitinib; first compound 8 µM): 1.15

Cell Line: 201T
- relative viability ([1]; first compound 0.04 µM): 0.985
- relative viability ([1]; first compound 0.1265 µM): 0.976
- relative viability ([1]; first compound 0.4 µM): 0.908
- relative viability ([1]; first compound 1.265 µM): 0.971
- relative viability ([1]; first compound 4 µM): 0.913
- relative viability (Salubrinal + Palbociclib; first compound 0.08 µM): 0.355
- relative viability (Salubrinal + Palbociclib; first compound 0.253 µM): 0.332
- relative viability (Salubrinal + Palbociclib; first compound 0.8 µM): 0.413
- relative viability (Salubrinal + Palbociclib; first compound 2.53 µM): 0.351
- relative viability (Salubrinal + Palbociclib; first compound 8 µM): 0.374
- relative viability (Salubrinal + Navitoclax; first compound 0.08 µM): 1.2
- relative viability (Salubrinal + Navitoclax; first compound 0.253 µM): 1.2
- relative viability (Salubrinal + Navitoclax; first compound 0.8 µM): 1.24
- relative viability (Salubrinal + Navitoclax; first compound 2.53 µM): 1.19
- relative viability (Salubrinal + Navitoclax; first compound 8 µM): 1.22
- relative viability (Salubrinal + Linsitinib; first compound 0.08 µM): 1.04
- relative viability (Salubrinal + Linsitinib; first compound 0.253 µM): 0.982
- relative viability (Salubrinal + Linsitinib; first compound 0.8 µM): 1.09
- relative viability (Salubrinal + Linsitinib; first compound 2.53 µM): 1.07
- relative viability (Salubrinal + Linsitinib; first compound 8 µM): 0.97

Cell Line: NCI-H1793
- relative viability ([1]; first compound 0.04 µM): 0.603
- relative viability ([1]; first compound 0.1265 µM): 0.375
- relative viability ([1]; first compound 0.4 µM): 0.371
- relative viability ([1]; first compound 1.265 µM): 0.32
- relative viability ([1]; first compound 4 µM): 0.375
- relative viability (Salubrinal + Palbociclib; first compound 0.08 µM): 0.366
- relative viability (Salubrinal + Palbociclib; first compound 0.253 µM): 0.37
- relative viability (Salubrinal + Palbociclib; first compound 0.8 µM): 0.323
- relative viability (Salubrinal + Palbociclib; first compound 2.53 µM): 0.284
- relative viability (Salubrinal + Palbociclib; first compound 8 µM): 0.287
- relative viability (Salubrinal + Navitoclax; first compound 0.08 µM): 0.476
- relative viability (Salubrinal + Navitoclax; first compound 0.253 µM): 0.432
- relative viability (Salubrinal + Navitoclax; first compound 0.8 µM): 0.431
- relative viability (Salubrinal + Navitoclax; first compound 2.53 µM): 0.351
- relative viability (Salubrinal + Navitoclax; first compound 8 µM): 0.339
- relative viability (Salubrinal + Linsitinib; first compound 0.08 µM): 1.1
- relative viability (Salubrinal + Linsitinib; first compound 0.253 µM): 0.798
- relative viability (Salubrinal + Linsitinib; first compound 0.8 µM): 1.04
- relative viability (Salubrinal + Linsitinib; first compound 2.53 µM): 0.795
- relative viability (Salubrinal + Linsitinib; first compound 8 µM): 0.636

Cell Line: NCI-H460
- relative viability ([1]; first compound 0.04 µM): 0.453
- relative viability ([1]; first compound 0.1265 µM): 0.481
- relative viability ([1]; first compound 0.4 µM): 0.603
- relative viability ([1]; first compound 1.265 µM): 0.312
- relative viability ([1]; first compound 4 µM): 0.386
- relative viability (Salubrinal + Palbociclib; first compound 0.08 µM): 0.202
- relative viability (Salubrinal + Palbociclib; first compound 0.253 µM): 0.158
- relative viability (Salubrinal + Palbociclib; first compound 0.8 µM): 0.184
- relative viability (Salubrinal + Palbociclib; first compound 2.53 µM): 0.145
- relative viability (Salubrinal + Palbociclib; first compound 8 µM): 0.105
- relative viability (Salubrinal + Navitoclax; first compound 0.08 µM): 1.43
- relative viability (Salubrinal + Navitoclax; first compound 0.253 µM): 0.487
- relative viability (Salubrinal + Navitoclax; first compound 0.8 µM): 1.45
- relative viability (Salubrinal + Navitoclax; first compound 2.53 µM): 1.17
- relative viability (Salubrinal + Navitoclax; first compound 8 µM): 1.03
- relative viability (Salubrinal + Linsitinib; first compound 0.08 µM): 1.31
- relative viability (Salubrinal + Linsitinib; first compound 0.253 µM): 0.586
- relative viability (Salubrinal + Linsitinib; first compound 0.8 µM): 1
- relative viability (Salubrinal + Linsitinib; first compound 2.53 µM): 0.813
- relative viability (Salubrinal + Linsitinib; first compound 8 µM): 0.564

Cell Line: HCC-15
- relative viability ([1]; first compound 0.04 µM): 0.382
- relative viability ([1]; first compound 0.1265 µM): 0.412
- relative viability ([1]; first compound 0.4 µM): 0.439
- relative viability ([1]; first compound 1.265 µM): 0.345
- relative viability ([1]; first compound 4 µM): 0.247
- relative viability (Salubrinal + Palbociclib; first compound 0.08 µM): 0.832
- relative viability (Salubrinal + Palbociclib; first compound 0.253 µM): 0.589
- relative viability (Salubrinal + Palbociclib; first compound 0.8 µM): 0.844
- relative viability (Salubrinal + Palbociclib; first compound 2.53 µM): 0.777
- relative viability (Salubrinal + Palbociclib; first compound 8 µM): 0.703
- relative viability (Salubrinal + Navitoclax; first compound 0.08 µM): 0.785
- relative viability (Salubrinal + Navitoclax; first compound 0.253 µM): 0.602
- relative viability (Salubrinal + Navitoclax; first compound 0.8 µM): 0.722
- relative viability (Salubrinal + Navitoclax; first compound 2.53 µM): 0.771
- relative viability (Salubrinal + Navitoclax; first compound 8 µM): 0.689
- relative viability (Salubrinal + Linsitinib; first compound 0.08 µM): 0.946
- relative viability (Salubrinal + Linsitinib; first compound 0.253 µM): 0.801
- relative viability (Salubrinal + Linsitinib; first compound 0.8 µM): 0.952
- relative viability (Salubrinal + Linsitinib; first compound 2.53 µM): 0.964
- relative viability (Salubrinal + Linsitinib; first compound 8 µM): 0.87

Cell Line: NCI-H441
- relative viability ([1]; first compound 0.04 µM): 0.605
- relative viability ([1]; first compound 0.1265 µM): 0.631
- relative viability ([1]; first compound 0.4 µM): 0.716
- relative viability ([1]; first compound 1.265 µM): 0.625
- relative viability ([1]; first compound 4 µM): 0.685
- relative viability (Salubrinal + Palbociclib; first compound 0.08 µM): 0.222
- relative viability (Salubrinal + Palbociclib; first compound 0.253 µM): 0.189
- relative viability (Salubrinal + Palbociclib; first compound 0.8 µM): 0.313
- relative viability (Salubrinal + Palbociclib; first compound 2.53 µM): 0.23
- relative viability (Salubrinal + Palbociclib; first compound 8 µM): 0.201
- relative viability (Salubrinal + Navitoclax; first compound 0.08 µM): 0.437
- relative viability (Salubrinal + Navitoclax; first compound 0.253 µM): 0.711
- relative viability (Salubrinal + Navitoclax; first compound 0.8 µM): 0.642
- relative viability (Salubrinal + Navitoclax; first compound 2.53 µM): 0.678
- relative viability (Salubrinal + Navitoclax; first compound 8 µM): 0.913
- relative viability (Salubrinal + Linsitinib; first compound 0.08 µM): 0.663
- relative viability (Salubrinal + Linsitinib; first compound 0.253 µM): 0.438
- relative viability (Salubrinal + Linsitinib; first compound 0.8 µM): 0.643
- relative viability (Salubrinal + Linsitinib; first compound 2.53 µM): 0.649
- relative viability (Salubrinal + Linsitinib; first compound 8 µM): 0.517

Cell Line: EPLC-272H
- relative viability ([1]; first compound 0.04 µM): 0.249
- relative viability ([1]; first compound 0.1265 µM): 0.33
- relative viability ([1]; first compound 0.4 µM): 0.348
- relative viability ([1]; first compound 1.265 µM): 0.237
- relative viability ([1]; first compound 4 µM): 0.251
- relative viability (Salubrinal + Palbociclib; first compound 0.08 µM): 0.314
- relative viability (Salubrinal + Palbociclib; first compound 0.253 µM): 0.295
- relative viability (Salubrinal + Palbociclib; first compound 0.8 µM): 0.293
- relative viability (Salubrinal + Palbociclib; first compound 2.53 µM): 0.288
- relative viability (Salubrinal + Palbociclib; first compound 8 µM): 0.312
- relative viability (Salubrinal + Navitoclax; first compound 0.08 µM): 1.23
- relative viability (Salubrinal + Navitoclax; first compound 0.253 µM): 1.02
- relative viability (Salubrinal + Navitoclax; first compound 0.8 µM): 1.4
- relative viability (Salubrinal + Navitoclax; first compound 2.53 µM): 1.19
- relative viability (Salubrinal + Navitoclax; first compound 8 µM): 1.04
- relative viability (Salubrinal + Linsitinib; first compound 0.08 µM): 1.19
- relative viability (Salubrinal + Linsitinib; first compound 0.253 µM): 0.832
- relative viability (Salubrinal + Linsitinib; first compound 0.8 µM): 1.37
- relative viability (Salubrinal + Linsitinib; first compound 2.53 µM): 1.27
- relative viability (Salubrinal + Linsitinib; first compound 8 µM): 1.05
